Experimental findings from article PMC9137698, “Development of New Antimycobacterial Sulfonyl Hydrazones and 4-Methyl-1,2,3-thiadiazole-Based Hydrazone Derivatives” (Antibiotics, 2022) are described below.

In general, MIC refers to the lowest concentration found to suppress growth. A word on the IC50: it is the concentration that gives 50% inhibition.

Values after ≈ are worked out from the molar mass of the structure shown. Where two headings read alike, the source gives them in different places. Some results are limits rather than exact numbers.

Assay [1] relates to M. tuberculosis strain H37Rv. Description: EUCAST broth microdilution MIC determination. It is filed as cell-based, Mycobacterium tuberculosis. Background: Dilution methods test growth across graded concentrations, often in twofold steps.
The test system of assay [2] is HEK-293 (human embryonic kidney 293) cells. Kind of assay: MTT cytotoxicity assay, HEK-293. It is filed as cell-based. Particulars: for selectivity index SI, HEK-293 / selectivity indices (SI): ratio of IC50 to MIC; for IC50: Homo sapiens; for selectivity indices (SI): both cell lines HEK-293 and CCL-1. As to the method:
(§1) The cytostatic activity of the investigational compounds was determined using a standard MTT-based colorimetric assay for evaluating cell viability. HEK-293 and CCL-1 cells were harvested and seeded (100 µL/well) in 96-well plates at a density of 3 × 10^5. Following a 24 h incubation, the cells were treated with serial dilutions of the tested compounds in the concentration range of 200.0–12.5 µM. Following an exposure time of 72 h, a filter-sterilized MTT substrate solution (5 mg/mL in PBS) was added to each well of the culture plate. A further 1–4 h incubation allowed the formation of purple insoluble precipitates of the formazan dye. The latter was dissolved in an isopropyl alcohol solution containing 5% formic acid for absorbance measurement at 550 nm. The collected absorbance values were blanked against MTT-and isopropanol solution and normalized to the mean value of the untreated control (100% cell viability).
(§2) Semi-logarithmic “dose-response” curves were computed using nonlinear regression in GraphPad Prism® 8.0. The antiproliferative potential of the studied compounds was rated according to the calculated half-maximal inhibitory concentrations (IC50 values).

In assay [3] the test system is CCL-1 mouse fibroblast cell line. Description: MTT cytotoxicity assay, CCL-1. It is filed as cell-based. Particulars: for selectivity index SI, CCL-1: ratio of IC50 to MIC; for IC50: Mus musculus. As to the method:
as §1, §2
For orientation: Formazan colour is commonly taken as a measure of viable cells.

The mark [4] stands for this setting: M. tuberculosis strain H37Rv, lowest concentration without visual growth, read-out: MIC a.
[5] abbreviates: Mycobacterium tuberculosis, H37RV, M. tuberculosis strain H37Rv, lowest concentration without visual growth, read-out: MIC a.
The mark [6] stands for this setting: HEK293, 72 h, read-out: IC50 (µM) c HEK-293.
The mark [7] stands for this setting: CCL-1, 72 h, read-out: IC50 (µM) b CCL-1.
The mark [8] stands for this setting: Mycobacterium tuberculosis, H37RV, read-out: MIC a (µM).

As for `Cc1nnsc1C(=O)N/N=C/c1c(Cl)c2ccccc2oc1=O` [3a, N’-[(E)-(4-chloro-2-oxo-2H-1-benzopyran-3-yl)methylidene]-4-methyl-1,2,3-thiadiazole-5-carbohydrazide], the MIC in assay [1] (setting [4]) is 0.3914 µM (≈ 0.137 µg/mL); in assay [1] (setting [5]) it was under 0.4 µM.
For the molecule `COc1ccc2c(c1)c(/C=N/NC(=O)c1snnc1C)cn2C` [3b, N’-[(E)-(5-methoxy-1-methyl-1H-indol-3-yl)methylidene]-4-methyl-1,2,3-thiadiazole-5-carbohydrazide], the results for the MIC in assay [1] (setting [4]) and in assay [1] (setting [5]) were 0.3294 µM (≈ 0.108 µg/mL) and under 0.4 µM, respectively.
For `Cc1nnsc1C(=O)N/N=C/c1c[nH]c2ccc(OCc3ccccc3)cc12` [3c, N’-((E)-[5-(benzyloxy)-1H-indol-3-yl]methylidene)-4-methyl-1,2,3-thiadiazole-5-carbohydrazide], the “selectivity index SI, HEK-293” value in assay [2] (as assigned in running text) was found to be 2242. Further, the “selectivity index SI, CCL-1” value in assay [3] (as assigned in running text) is reported as 4093.
With `COc1cc(/C=N/NC(=O)c2snnc2C)ccc1O` [3d, N’-[(E)-(4-hydroxy-3-methoxyphenyl)methylidene]-4-methyl-1,2,3-thiadiazole-5-carbohydrazide], the IC50 was 257 µM in assay [2] (HEK293, MTT, as assigned in running text, read-out: IC50, human embryonic kidney cells HEK-29) and 218 µM in assay [3] (Fibroblast, MTT, as assigned in running text, read-out: IC50, mouse fibroblast cells CCL-1). Besides, the “selectivity index SI, HEK-293” value in assay [2] (as assigned in running text) was found to be 3516. Besides, in assay [3] (as assigned in running text), the “selectivity index SI, CCL-1” value was found to be 2979. The minimum inhibitory concentration (MIC) in assay [1] (setting [5]) was under 0.1 µM.
Turning to `COc1ccc2c(c1)c(/C=N/NS(=O)(=O)c1ccccc1)cn2C` [5b, N’-[(E)-(5-methoxy-1-methyl-1H-indol-3-yl)methylidene]benzenesulfonohydrazide], the minimal inhibitory concentration (MIC) in assay [1] (setting [4]) is 0.2027 µM (≈ 0.0696 µg/mL); in assay [1] (setting [5]), under 0.4 µM.
`O=S(=O)(N/N=C/c1c[nH]c2ccc(OCc3ccccc3)cc12)c1ccccc1` [5c]: the figures for the IC50 in assay [2] (setting [6]) and in assay [3] (setting [7]) were 32.3 ± 1.5 µM and 321 ± 16.2 µM, respectively. In assay [1] (setting [8]), the MIC is 0.343 µM (≈ 0.139 µg/mL).
Take `O=S(=O)(N/N=C/c1c[nH]c2ccc(Cl)cc12)c1ccccc1` [5d, N’-[(E)-(5-chloro-1H-indol-3-yl)methylidene]benzenesulfonohydrazide]: in assay [1] (setting [5]), the MIC turned out to be 0.167 µM (≈ 0.0557 µg/mL).
Take `COc1ccc2[nH]cc(/C=N/NS(=O)(=O)c3ccccc3)c2c1` [5e, N’-[(E)-(5-methoxy-1H-indol-3-yl)methylidene]benzenesulfonohydrazide]: the minimal inhibitory concentration (MIC) in assay [1] (setting [5]) amounted to 0.165 µM (≈ 0.0542 µg/mL).
Same read-out and setting: then `O=[N+]([O-])c1ccccc1/C=N/NS(=O)(=O)c1ccccc1` [5f, N’-[(E)-(2-nitrophenyl)methylidene]benzenesulfonohydrazide], with 0.305 µM (≈ 0.0932 µg/mL).
In the case of `O=[N+]([O-])c1ccc(/C=N/NS(=O)(=O)c2ccccc2)cc1` [5g, N’-[(E)-(4-nitrophenyl)methylidene]benzenesulfonohydrazide], the “selectivity indices (SI)” value in assay [2] is on record as over 1000. For the same molecule, the MIC in assay [1] (setting [5]) is under 0.1 µM.
Turning to `O=S(=O)(N/N=C/c1ccc(Cl)cc1)c1ccccc1` [5i, N’-[(E)-(4-chlorophenyl)methylidene]benzenesulfonohydrazide], the IC50 in assay [2] (setting [6]) is 100 ± 9.3 µM; in assay [3] (setting [7]), 131 ± 11.4 µM. For the same molecule, the MIC in assay [1] (setting [8]) was found to be 0.147 µM (≈ 0.0434 µg/mL).
`COc1ccc(/C=N/NS(=O)(=O)c2ccccc2)cc1OC` [5j, N’-[(E)-(3,4-dimethoxyphenyl)methylidene]benzenesulfonohydrazide]: the 50% inhibitory concentration (IC50) turned out to be 47.4 ± 6.8 µM in assay [2] (setting [6]) and 83.5 ± 7 µM in assay [3] (setting [7]). The MIC in assay [1] (setting [8]) was 0.321 µM (≈ 0.103 µg/mL).
Consider `O=S(=O)(N/N=C/C=C/c1ccccc1)c1ccccc1` [5k, N’-[(1E,2E)-3-phenylprop-2-en-1-ylidene]benzenesulfonohydrazid], for which the “selectivity index SI, HEK-293” value in assay [2] (as assigned in running text) was 3380. Besides, the “selectivity indices (SI)” value in assay [2] is reported as over 1000. Further, the “selectivity index SI, CCL-1” value in assay [3] (as assigned in running text) is 2216. The MIC in assay [1] (setting [5]) is under 0.1 µM.
Regarding `NNC(=O)c1ccncc1` [INH, isoniazid, reference compound], the MIC in assay [1] (setting [5]) came to 0.0343 µM (≈ 0.0047 µg/mL).
In the case of “N’-[(E)-(3-hydroxy-4-methoxyphenyl)methylidene]benzenesulfonohydrazide [5h]”, the MIC in assay [1] (setting [4]) stood at 0.3203 µM.
